The target of one data set is IRAK4 (Homo sapiens (Human), UniProt Q9NWZ3). The data set can be described thus: IRAK4 Inhibition Assay. In kind it is biochemical. As to conditions: ATP 500 μM; IRAK4 0.6 nM. In outline:
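Enzyme 0.6 nM, ATP 500 μM, FL-peptide 1.5 μM, DMSO 1.6%; HEPES pH 7.2/MgCl2/Brij 35/DTT buffer. RT, 60 min, EDTA stop. Mobility-shift product/substrate ratio; % inhib vs no-enzyme and vehicle controls.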

Data set [1] has as its system Human whole blood stimulated with a TLR2 agonist (lipoteichoic acid), IL-6 levels. In words: IRAK4 Whole Blood Assay. The settings on record: lipoteichoic acid 10 μg/mL. It counts as cell-based. In outline: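 ACD-A-anticoagulated human whole blood was preincubated with compounds for 60 min at 37 °C under 5% CO2. It was then stimulated with 10 μg/mL lipoteichoic acid (final) in RPMI for 5 h. IL-6 in plasma supernatants was measured by flow cytometry bead assay.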

A short description of data set [2]: Caco-2 Permeability Assay. As to conditions: human, Caco-2, test compound 3 μM. In kind it is in vitro ADME. The procedure, abridged:
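Bidirectional permeability measured over 2 h at 37° C, compound dosed at 3 μM in the donor compartment (apical for absorptive, basolateral for secretive) with plain buffer as receiver.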
For orientation: Caco-2 cells form a polarised layer with tight junctions and transporters.

Chain of IRAK4 (Q9NWZ3 whole entry, species assumed): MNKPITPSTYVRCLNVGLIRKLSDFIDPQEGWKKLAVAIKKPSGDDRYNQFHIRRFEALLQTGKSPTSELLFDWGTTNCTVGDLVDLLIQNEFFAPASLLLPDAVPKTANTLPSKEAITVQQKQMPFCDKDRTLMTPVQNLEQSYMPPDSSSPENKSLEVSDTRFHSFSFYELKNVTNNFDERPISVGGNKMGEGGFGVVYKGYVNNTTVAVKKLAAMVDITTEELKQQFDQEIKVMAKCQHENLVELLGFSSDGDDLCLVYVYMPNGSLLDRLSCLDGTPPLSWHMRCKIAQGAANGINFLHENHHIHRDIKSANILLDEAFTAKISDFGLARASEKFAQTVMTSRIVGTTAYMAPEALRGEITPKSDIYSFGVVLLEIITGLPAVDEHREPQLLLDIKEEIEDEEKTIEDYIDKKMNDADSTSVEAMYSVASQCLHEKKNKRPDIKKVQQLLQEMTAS

Regarding `CC(C)(O)CCc1cn(-c2cnc(-n3ncc4cc(C#N)cnc43)cc2NC2CC(F)(F)C2)nn1` [Example 367, 1-(4-((3,3-difluorocyclobutyl)amino)-5-(4-(3-hydroxy-3-methylbutyl)-1H-1,2,3-triazol-1-yl)pyridin-2-yl)-1H-pyrazolo[3,4-b]pyridine-5-carbonitrile], on IRAK4, the IC50 came out at 9 nM. In data set [1] (Homo sapiens), this compound came in with an EC50 of 230 nM. Besides, the Papp at 2 h, 3 µM in data set [2] is 3.6 ×10⁻⁶ cm/s.
For the compound `CC(=O)N1CC[C@@H](n2cc(-c3cnc(-n4ncc5cc(C#N)cnc54)cc3NC(C)C)nn2)[C@@H](O)C1` [Example 191, 1-(5-(1-((3S,4R)-1-acetyl-3-hydroxypiperidin-4-yl)-1H-1,2,3-triazol-4-yl)-4-(isopropylamino)pyridin-2-yl)-1H-pyrazolo[3,4-b]pyridine-5-carbonitrile], the IC50 on IRAK4 was determined as 16 nM. In data set [1] (Homo sapiens), this compound yielded an EC50 of 390 nM. Besides, the apparent permeability coefficient (Papp) at 2 h, 3 µM in data set [2] is under 1.5 ×10⁻⁶ cm/s.
In the same order, the values of `CC(C)Nc1cc(-n2ncc3cc(C#N)cnc32)ncc1-c1cc(C(CO)CO)no1` [Example 399, 1-(5-(3-(1,3-dihydroxypropan-2-yl)isoxazol-5-yl)-4-(isopropylamino)pyridin-2-yl)-1H-pyrazolo[3,4-b]pyridine-5-carbonitrile] are 10 nM, 140 nM and under 1.5 ×10⁻⁶ cm/s.
`CC(C)Nc1cc(-n2ccc3cncnc32)ncc1-c1cn([C@@H]2CCNC[C@H]2O)nn1` [Example 4, (3R,4R)-4-(4-(4-(isopropylamino)-6-(7H-pyrrolo[2,3-d]pyrimidin-7-yl)pyridin-3-yl)-1H-1,2,3-triazol-1-yl)piperidin-3-ol]: the IC50 at IRAK4 is 3 nM. In data set [1] (Homo sapiens), this compound showed an EC50 of 2530 nM. For the same compound, the Papp at 2 h, 3 µM in data set [2] was under 1.5 ×10⁻⁶ cm/s.
On to `CC(C)Nc1cc(-n2ncc3cc(C#N)cnc32)ncc1-c1cn(CCC(F)(F)F)nn1` [Example 41, 1-(4-(isopropylamino)-5-(1-(3,3,3-trifluoropropyl)-1H-1,2,3-triazol-4-yl)pyridin-2-yl)-1H-pyrazolo[3,4-b]pyridine-5-carbonitrile], for which the IC50 on IRAK4 turned out to be 4 nM. It took 320 nM to reach a half-maximal effect in data set [1] (Homo sapiens) (EC50). Further, the apparent permeability coefficient (Papp) at 2 h, 3 µM in data set [2] was 27.8 ×10⁻⁶ cm/s.
In the case of `CC(C)(O)CCC1CC(c2cnc(-n3ncc4cc(C#N)cnc43)cc2NCC(F)F)=NO1` (stereo not drawn) [Example 443, 1-(4-((2,2-difluoroethyl)amino)-5-(5-(3-hydroxy-3-methylbutyl)-4,5-dihydroisoxazol-3-yl)pyridin-2-yl)-1H-pyrazolo[3,4-b]pyridine-5-carbonitrile], the IC50 at IRAK4 worked out at 2 nM. Besides, the EC50 in data set [1] was determined as 390 nM. The Papp at 2 h, 3 µM in data set [2] was 14.1 ×10⁻⁶ cm/s.
Take `CC(=O)N1C2CCC1CC(c1cc(-c3cnc(-n4ncc5cc(C#N)cnc54)cc3NC(C)C)on1)C2` (stereo not drawn) [Example 419, 1-(5-(3-(8-acetyl-8-azabicyclo[3.2.1]octan-3-yl)isoxazol-5-yl)-4-(isopropylamino)pyridin-2-yl)-1H-pyrazolo[3,4-b]pyridine-5-carbonitrile]: the IC50 at IRAK4 stood at 2 nM. The EC50 in data set [1] (Homo sapiens) was 430 nM. The same compound gave a Papp at 2 h, 3 µM in data set [2] of 19.9 ×10⁻⁶ cm/s.
Consider `COC(=O)N1CC[C@@H](n2cc(-c3cnc(-n4ncc5cc(C#N)cnc54)cc3NC3CC3)nn2)[C@](C)(O)C1` (relative stereo) [Example 208, (trans)-methyl 4-(4-(6-(5-cyano-1H-pyrazolo[3,4-b]pyridin-1-yl)-4-(cyclopropylamino)pyridin-3-yl)-1H-1,2,3-triazol-1-yl)-3-hydroxy-3-methylpiperidine-1-carboxylate], for which the IC50 at IRAK4 came out at 6 nM. In data set [1] (Homo sapiens), this compound yielded an EC50 of 1510 nM. Moreover, the Papp at 2 h, 3 µM in data set [2] was found to be 2.6 ×10⁻⁶ cm/s.
In the case of `CC(C)Nc1cc(-n2ncc3cc(C#N)cnc32)ncc1-c1cn(CCN2CCOCC2)nn1` [Example 12, 1-(4-(isopropylamino)-5-(1-(2-morpholinoethyl)-1H-1,2,3-triazol-4-yl)pyridin-2-yl)-1H-pyrazolo[3,4-b]pyridine-5-carbonitrile], the IC50 on IRAK4 worked out at 4 nM. Moreover, the EC50 in data set [1] (Homo sapiens) is 310 nM. The compound also came in with a Papp at 2 h, 3 µM in data set [2] of 23.4 ×10⁻⁶ cm/s.
Consider `CC(C)Nc1cc(-n2ncc3cc(C#N)cnc32)ncc1-n1cc(CC[C@](C)(O)CO)nn1` [Example 387, (S)-1-(5-(4-(3,4-dihydroxy-3-methylbutyl)-1H-1,2,3-triazol-1-yl)-4-(isopropylamino)pyridin-2-yl)-1H-pyrazolo[3,4-b]pyridine-5-carbonitrile], for which, at IRAK4, the IC50 turned out to be 8 nM. For the same compound, the response in data set [1] (Homo sapiens) was half-maximal at 240 nM (EC50). In addition, the apparent permeability (Papp) at 2 h, 3 µM in data set [2] was under 1.5 ×10⁻⁶ cm/s.
For the compound `CCCn1cc(-c2cnc(-n3ncc4cc(C#N)cnc43)cc2NC2CCOCC2)nn1` [Example 49, 1-(5-(1-propyl-1H-1,2,3-triazol-4-yl)-4-((tetrahydro-2H-pyran-4-yl)amino)pyridin-2-yl)-1H-pyrazolo[3,4-b]pyridine-5-carbonitrile], on IRAK4, the IC50 was found to be 4 nM. Also, the EC50 in data set [1] (Homo sapiens) was 580 nM. Also, the apparent permeability (Papp) at 2 h, 3 µM in data set [2] turned out to be 28.8 ×10⁻⁶ cm/s.
In the same order, the values of `CC(=O)N1CC[C@@H](n2cc(-c3cnc(-n4ncc5cc(C#N)cnc54)cc3NC(C)C)nn2)[C@H](O)C1` (single isomer, unassigned) [Example 197, 1-(5-(1-((trans)-1-acetyl-3-hydroxypiperidin-4-yl)-1H-1,2,3-triazol-4-yl)-4-(isopropylamino)pyridin-2-yl)-1H-pyrazolo[3,4-b]pyridine-5-carbonitrile] are 3 nM, 170 nM and under 1.5 ×10⁻⁶ cm/s.
Turning to `CCOC(=O)N1CC[C@H](n2cc(-c3cnc(-n4ncc5cc(C#N)cnc54)cc3NC(C)C)nn2)[C@H](O)C1` [Example 180, (3R,4S)-ethyl 4-(4-(6-(5-cyano-1H-pyrazolo[3,4-b]pyridin-1-yl)-4-(isopropylamino)pyridin-3-yl)-1H-1,2,3-triazol-1-yl)-3-hydroxypiperidine-1-carboxylate], the IC50 on IRAK4 amounted to 11 nM. This compound also yielded an EC50 in data set [1] (Homo sapiens) of 2140 nM. The Papp at 2 h, 3 µM in data set [2] worked out at 3.2 ×10⁻⁶ cm/s.
Turning to `CC(=O)N(C)CCCc1cc(-c2cnc(-n3ncc4cc(C#N)cnc43)cc2NC(C)C)on1` [Example 415, N-(3-(5-(6-(5-cyano-1H-pyrazolo[3,4-b]pyridin-1-yl)-4-(isopropylamino)pyridin-3-yl)isoxazol-3-yl)propyl)-N-methylacetamide], the IC50 on IRAK4 amounted to 3 nM. The same compound yielded a 50% effective concentration (EC50) in data set [1] (Homo sapiens) of 260 nM. The Papp at 2 h, 3 µM in data set [2] is 18.3 ×10⁻⁶ cm/s.
On to `CC(C)Nc1cc(-n2ncc3cc(C#N)cnc32)ncc1-n1cc(CCCO)nn1` [Example 296, 1-(5-(4-(3-hydroxypropyl)-1H-1,2,3-triazol-1-yl)-4-(isopropylamino)pyridin-2-yl)-1H-pyrazolo[3,4-b]pyridine-5-carbonitrile], for which the IC50 at IRAK4 turned out to be 11 nM. In data set [1] (Homo sapiens), this compound gave an EC50 of 240 nM. Moreover, the Papp at 2 h, 3 µM in data set [2] was 4.4 ×10⁻⁶ cm/s.
With `CC(C)Nc1cc(-n2ncc3cc(C#N)cnc32)ncc1-n1cc(CCC(C)(C)O)nn1` [Example 327, 1-(5-(4-(3-hydroxy-3-methylbutyl)-1H-1,2,3-triazol-1-yl)-4-(isopropylamino)pyridin-2-yl)-1H-pyrazolo[3,4-b]pyridine-5-carbonitrile], the IC50 at IRAK4 is 3 nM. In data set [1] (Homo sapiens), this compound had an EC50 of 200 nM. The same compound came in with a Papp at 2 h, 3 µM in data set [2] of 7.4 ×10⁻⁶ cm/s.

As usually defined, the IC50 is the concentration at which inhibition is half-maximal. By EC50 is commonly meant the concentration that produces a half-maximal response. One may read the Papp as the rate of passage across a membrane or cell layer, normalised by area and donor concentration. High values mean fast passage, low ones slow passage.

These data come from patent publication US10294229B2, “Heteroaryl substituted aminopyridine compounds” (BRISTOL-MYERS SQUIBB COMPANY, priority 2015, dated 2019).
